Experimental data from patent US12415819B2, “Cu- and Ni-catalyzed decarboxylative borylation reactions” (The Scripps Research Institute, priority 2017, dated 2025).
Values after ≈ are worked out from the molar mass of the structure shown.

Assays:
Assay in all cases: Antibiotic susceptibility, broth microdilution
Format in all cases: cell-based
[1] = test system: Enterococcus faecium (Van A, ATCC BAA-2317); details: growth observed at 20 h; unit assumed
Description: (§1) Antibiotic susceptibilities were determined using the Clinical and Laboratory Standards Institute broth microdilution method (63). Briefly, antibiotics were prepared as 2-fold dilutions in 96-well plates containing cation-adjusted Mueller-Hinton broth (S. aureus strains) or brain-heart infusion broth (Enterococcus strains). Stock solutions of antibiotics were made in dimethyl sulfoxide (DMSO). […]

[2] = test system: Staphylococcus aureus (ATCC 25923); details: growth observed at 20 h; unit assumed
Description: as §1

[3] = test system: Enterococcus faecalis (VanA, BM4166); details: growth observed at 20 h, unit assumed
Description: as §1

[4] = test system: Enterococcus faecalis (Van B, ATCC 51299); details: growth observed at 20 h, unit assumed
Description: as §1

[5] = test system: Staphylococcus aureus (methicillin resistant, ATCC 43300); details: MRSA; growth observed at 20 h; unit assumed
Description: as §1

**Q.** What does the source list for `CN[C@@H](CC(C)C)C(=O)N[C@H]1C(=O)N[C@@H](CC(N)=O)C(=O)N[C@H]2CN[C@H]3C(=O)N[C@H](C(=O)N[C@@H](C(=O)O)c4cc(OC)cc(OC)c4-c4cc3ccc4OC)[C@H](O)c3ccc(c(Cl)c3)Oc3cc2cc(c3OC)Oc2ccc(cc2Cl)[C@H]1O` (atropisomer, axis not shown) [Compound 43]?
**A.** MIC [1]: > 64 µg/mL; MIC [2]: 2 µg/mL (≈ 1.69 µM); MIC [3]: > 64 µg/mL; MIC [4]: 8 µg/mL (≈ 6.74 µM); MIC [5]: 2 µg/mL (≈ 1.69 µM)

**Q.** What does the source list for `CN[C@H](CC(C)C)C(=O)N[C@H]1C(=O)N[C@@H](CC(N)=O)C(=O)N[C@H]2C(=O)N[C@H]3C(=O)N[C@H](C(=O)N[C@H](C(=O)O)c4cc(O)cc(O)c4-c4cc3ccc4O)[C@H](O)c3ccc(c(Cl)c3)Oc3cc2cc(c3O)Oc2ccc(cc2Cl)[C@H]1O` [vancomycin aglycon]?
**A.** MIC [1]: > 64 µg/mL; MIC [2]: 1 µg/mL (≈ 0.874 µM); MIC [3]: > 64 µg/mL; MIC [4]: 32 µg/mL (≈ 28 µM); MIC [5]: 1 µg/mL (≈ 0.874 µM)

**Q.** What does the source list for `CN[C@H](CC(C)C)C(=O)N[C@H]1C(=O)N[C@@H](CC(N)=O)C(=O)N[C@H]2C(=O)N[C@H]3C(=O)N[C@H](C(=O)N[C@H](C(=O)O)c4cc(O)cc(O)c4-c4cc3ccc4O)[C@H](O)c3ccc(c(Cl)c3)Oc3cc2cc(c3O[C@@H]2O[C@H](CO)[C@@H](O)[C@H](O)[C@H]2O[C@H]2C[C@](C)(N)[C@H](O)[C@H](C)O2)Oc2ccc(cc2Cl)[C@H]1O` [vancomycin]?
**A.** MIC [1]: > 64 µg/mL; MIC [2]: 0.5 µg/mL (≈ 0.345 µM); MIC [3]: > 64 µg/mL; MIC [4]: 16 µg/mL (≈ 11 µM); MIC [5]: 0.5 µg/mL (≈ 0.345 µM)
